“And” between values parts separate entries of the source, which are not always exact repeats. Equal values may be shown once. One block for each compound: values may come before it.
Experiment: Henry solubility constant Hcp at 298.15 K (mol/(m3 Pa))
[1] = reference: Wetlaufer et al. (1964)
[2] = reference: Bernauer and Dohnal (2008)
[3] = reference: Warner et al. (1980)
[4] = reference: Murphy et al. (1983a)
[5] = reference: Pollien et al. (2003)
[6] = reference: Fenclová et al. (2010)
[7] = reference: Charles and Destaillats (2005)
[8] = reference: Copolovici and Niinemets (2005)
[9] = reference: Bakierowska and Trzeszczyński (2003)
[10] = reference: Wen and Muccitelli (1979)
[11] = reference: Cetin and Odabasi (2005)
[12] = reference: Straver and de Loos (2005)
[13] = reference: Ashton et al. (1968)
[14] = reference: Rochester and Symonds (1973)
[15] = reference: Jönsson et al. (1982)

Henry solubility constant Hcp (reference: Aprea et al. (2007)): 0.019
SMILES: CCCCCC(=O)OC [methyl hexanoate]

Henry solubility constant Hcp (reference: Sagebiel et al. (1992)): 7.7 and 7.1
SMILES: COc1cc(C)ccc1O [4-methyl-2-methoxyphenol]

Henry solubility constant Hcp [5]: 0.023
SMILES: CCC(C)C=O (stereo unspecified) [2-methylbutanal]

Henry solubility constant Hcp (reference: Katrib et al. (2003)): 38
SMILES: COC(=O)CC(=O)OC [propanedioic acid, dimethyl ester]

Henry solubility constant Hcp [8]: 0.00018
SMILES: CC1=CCC(C(C)C)C=C1 (stereo not drawn) [α-phellandrene]

Henry solubility constant Hcp [8]: 0.00035
Henry solubility constant Hcp (reference: Schuhfried et al. (2015)): 0.00037
SMILES: C=C(C)[C@@H]1CC=C(C)CC1 [(S)-1-methyl-4-(1-methylethenyl)-cyclohexene]

Henry solubility constant Hcp [1]: 2.9e-05
SMILES: Cc1c[nH]c2ccccc12 [3-methylindole]

Henry solubility constant Hcp (reference: Goss et al. (2006)): 0.0015
Henry solubility constant Hcp (reference: Lei et al. (2004)): 8.5e-05
Henry solubility constant Hcp (reference: Wu and Chang (2011)): 0.00017
SMILES: OCCC(F)(F)C(F)(F)C(F)(F)C(F)(F)C(F)(F)C(F)(F)F [1H,1H,2H,2H-perfluoro-1-octanol]

Henry solubility constant Hcp [5]: 0.0089
Henry solubility constant Hcp (reference: Roberts and Pollien (1997)): 0.027
SMILES: CCOC(=O)C(C)CC (stereo unspecified) [ethyl 2-methylbutanoate]

Henry solubility constant Hcp (reference: Lei et al. (2004)): 0.00017
Henry solubility constant Hcp (reference: Wu and Chang (2011)): 0.0002
SMILES: OCCC(F)(F)C(F)(F)C(F)(F)C(F)(F)C(F)(F)C(F)(F)C(F)(F)C(F)(F)F [1H,1H,2H,2H-perfluorodecan-1-ol]

Henry solubility constant Hcp (reference: Kwan (2001)): 0.81
SMILES: O=C(O)C(F)(F)C(F)(F)C(F)(F)F [perfluorobutanoic acid]

Henry solubility constant Hcp (reference: Fichan et al. (1999)): 0.056
SMILES: C=C(C)C1CCC2(C)OC2C1 (stereo unspecified) [limonene oxide]

Henry solubility constant Hcp (reference: Buttery et al. (1965)): 0.075
SMILES: CCCCCCCC=O [octanal]

Henry solubility constant Hcp (reference: Fenclová et al. (2014)): 0.041
SMILES: CCOC(=O)CC [ethyl propanoate]

Henry solubility constant Hcp (reference: Nguyen (2013)): 2900
SMILES: OCCN1CCNCC1 [N-(2-hydroxyethyl)piperazine]

Henry solubility constant Hcp (reference: Aprea et al. (2007)): 0.037
Henry solubility constant Hcp (reference: Ioffe et al. (1984)): 0.036
SMILES: CCCC(=O)OC [methyl butanoate]

Henry solubility constant Hcp (reference: Reichl (1995)): 9e-06
SMILES: FC(F)(Cl)C(F)(F)Cl [1,2-dichlorotetrafluoroethane]

Henry solubility constant Hcp (reference: Wasik and Tsang (1970)): 0.0016
SMILES: [2H]c1c([2H])c([2H])c([2H])c([2H])c1[2H] [benzene-d6]

Henry solubility constant Hcp (reference: Ramachandran et al. (1996)): 0.00015
SMILES: CC1CCCCC1 [methylcyclohexane]

Henry solubility constant Hcp [9]: 0.00033
Henry solubility constant Hcp (reference: Nielsen et al. (1994)): 0.00025
SMILES: C1=CCCCC1 [cyclohexene]

Henry solubility constant Hcp [12]: 0.088
SMILES: CC/C=C\CCC=O [(Z)-4-heptenal]

Henry solubility constant Hcp (reference: Aprea et al. (2007)): 0.014
SMILES: CCCCCCCCCC(=O)OCC [ethyl decanoate]

Henry solubility constant Hcp (reference: Kuramochi et al. (2004)): 0.0027
SMILES: Brc1cc(Br)c(Br)cc1Br [1,2,4,5-tetrabromobenzene]

Henry solubility constant Hcp (reference: Drouillard et al. (1998)): 0.056
SMILES: ClCC(Cl)CCCCCCC(Cl)CCl (stereo unspecified) [1,2,9,10-tetrachlorodecane]

Henry solubility constant Hcp (reference: Heidman et al. (1985)): 3.1e-06
Henry solubility constant Hcp [15]: 2.9e-06
Henry solubility constant Hcp (reference: Park et al. (1997)): 3.3e-06
SMILES: CCCCCCCC [octane]

Henry solubility constant Hcp [15]: 1.8e-06
Henry solubility constant Hcp (reference: Park et al. (1997)): 1.9e-06
SMILES: CCCCCCCCC [nonane]

Henry solubility constant Hcp (reference: Kwan (2001)): 0.67
SMILES: O=C(O)C(F)(F)C(F)(F)C(F)(F)C(F)(F)F [perfluoropentanoic acid]

Henry solubility constant Hcp (reference: Dohányosová et al. (2004)): 2.4e-06
SMILES: CC(C)CCC(C)C [2,5-dimethylhexane]

The remaining lines, values behind:

SMILES: CC(C)C [2-methylpropane]
Henry solubility constant Hcp (reference: McAuliffe (1963)): 8.5e-06
Henry solubility constant Hcp (reference: Mohebbi et al. (2012)): 0.00011
Henry solubility constant Hcp [1]: 9.9e-06

SMILES: CNC=O [N-methylmethanamide]
Henry solubility constant Hcp [2]: 1500

SMILES: C1CCNCC1 [piperidine]
Henry solubility constant Hcp (reference: Bernauer and Dohnal (2009)): 2.8

SMILES: ClC1=C(Cl)C2(Cl)C3C4OC4C(Cl)C3C1(Cl)C2(Cl)Cl (stereo unspecified) [heptachlorepoxide]
Henry solubility constant Hcp [3]: 0.31

SMILES: Clc1ccccc1-c1ccccc1Cl [2,2'-dichlorobiphenyl]
Henry solubility constant Hcp [4]: 0.045

SMILES: CC(C)CCO [3-methyl-1-butanol]
Henry solubility constant Hcp (reference: Ammari and Schroen (2019)): 0.67
Henry solubility constant Hcp [6]: 0.82

SMILES: CCCC [butane]
Henry solubility constant Hcp (reference: Ben-Naim and Battino (1985)): 1.2e-05
Henry solubility constant Hcp (reference: Carroll et al. (1997)): 1.3e-05
Henry solubility constant Hcp (reference: McAuliffe (1963)): 1.1e-05
Henry solubility constant Hcp (reference: Morrison and Billett (1952)): 1.1e-05
Henry solubility constant Hcp [1]: 1.3e-05

SMILES: Clc1ccc(-c2ccc(Cl)cc2)cc1 [4,4'-dichlorobiphenyl]
Henry solubility constant Hcp [7]: 0.035

SMILES: Clc1ccccc1-c1c(Cl)cccc1Cl [2,2',6-trichlorobiphenyl]
Henry solubility constant Hcp [4]: 0.047

SMILES: [CH3][Sn]([CH3])([CH3])[CH3] [tetramethylstannane]
Henry solubility constant Hcp (reference: Abraham and Nasehzadeh (1981)): 9.4e-06

SMILES: C/C=C/CCl [(E)-1-chloro-2-butene]
Henry solubility constant Hcp [9]: 0.0031

SMILES: CCC(C)(C)O [2-methyl-2-butanol]
Henry solubility constant Hcp (reference: Butler et al. (1935)): 0.71
Henry solubility constant Hcp [6]: 0.72

SMILES: CN(C)c1nc(=O)n(C2CCCCC2)c(=O)n1C [hexazinone]
Henry solubility constant Hcp (reference: Mabury and Crosby (1996)): > 99

SMILES: FC(F)(F)C(F)(F)C(F)(F)F [octafluoropropane]
Henry solubility constant Hcp [10]: 1.2e-07

SMILES: Brc1cc(Br)c(Oc2cc(Br)c(Br)cc2Br)cc1Br [2,2',4,4',5,5'-hexabromodiphenyl ether]
Henry solubility constant Hcp [11]: 3.5
Henry solubility constant Hcp (reference: Long et al. (2017)): 3.7

SMILES: FC(F)(F)C(F)(F)C(Cl)Cl [3,3-dichloro-1,1,1,2,2-pentafluoropropane]
Henry solubility constant Hcp (reference: Kutsuna (2013)): 9.8e-05

SMILES: CCC(CC)O[N+](=O)[O-] [3-pentyl nitrate]
Henry solubility constant Hcp (reference: Hauff et al. (1998)): 0.0038

SMILES: O=C(O)C(F)(F)C(F)(F)C(F)(F)C(F)(F)C(F)(F)C(F)(F)F [perfluoroheptanoic acid]
Henry solubility constant Hcp (reference: Kwan (2001)): 1.7

SMILES: CC(=O)C(C)O (stereo unspecified) [3-hydroxy-2-butanone]
Henry solubility constant Hcp [12]: 0.57
Henry solubility constant Hcp (reference: Wu et al. (2022b)): 3.1

SMILES: Clc1ccc(-c2cc(Cl)ccc2Cl)cc1 [2,4',5-trichlorobiphenyl]
Henry solubility constant Hcp [4]: 0.049

SMILES: FN(F)F [nitrogen trifluoride]
Henry solubility constant Hcp [13]: 7.8e-06
Henry solubility constant Hcp (reference: Dean et al. (1973)): 7.7e-06

SMILES: OCC(F)(F)C(F)(F)F [2,2,3,3,3-pentafluoro-1-propanol]
Henry solubility constant Hcp (reference: Chen et al. (2003)): 0.14
Henry solubility constant Hcp [14]: 0.45

SMILES: O=CC(=O)O [oxoethanoic acid]
Henry solubility constant Hcp (reference: Ip et al. (2009)): 110

SMILES: CCCCOC=O [butyl methanoate]
Henry solubility constant Hcp (reference: Wittig et al. (2001)): 0.019

SMILES: Brc1cc(Br)c(Oc2cc(Br)c(Br)cc2Br)c(Br)c1 [2,2',4,4',5,6'-hexabromodiphenyl ether]
Henry solubility constant Hcp [11]: 7.3
Henry solubility constant Hcp (reference: Long et al. (2017)): 7.1

SMILES: C1CCCCC1 [cyclohexane]
Henry solubility constant Hcp (reference: Tsonopoulos and Wilson (1983)): 5.4e-05
Henry solubility constant Hcp (reference: Tucker et al. (1981)): 5.4e-05

SMILES: FC(F)(F)F [tetrafluoromethane]
Henry solubility constant Hcp [13]: 2.1e-06
Henry solubility constant Hcp (reference: Cosgrove and Walkley (1981)): 2.1e-06
Henry solubility constant Hcp (reference: Morrison and Johnstone (1954)): 2e-06
Henry solubility constant Hcp (reference: Park et al. (1982)): 2.1e-06
Henry solubility constant Hcp (reference: Reichl (1995)): 2e-06
Henry solubility constant Hcp (reference: Scharlin and Battino (1994)): 2.1e-06
Henry solubility constant Hcp (reference: Scharlin and Battino (1995)): 2.1e-06
Henry solubility constant Hcp [10]: 2e-06

SMILES: ClC1=C(Cl)[C@]2(Cl)[C@H]3[C@H]([C@@H]4C=C[C@H]3C4)[C@@]1(Cl)C2(Cl)Cl [aldrin]
Henry solubility constant Hcp [3]: 0.02

SMILES: FC(F)(F)C(F)(F)Cl [chloropentafluoroethane]
Henry solubility constant Hcp (reference: Reichl (1995)): 3.1e-06

SMILES: OCOO [hydroxymethyl hydroperoxide]
Henry solubility constant Hcp (reference: O’Sullivan et al. (1996)): 16000
Henry solubility constant Hcp (reference: Staffelbach and Kok (1993)): 16000
Henry solubility constant Hcp (reference: Zhou and Lee (1992)): 4700

SMILES: CCCCCC(C)=O [2-heptanone]
Henry solubility constant Hcp (reference: Chai et al. (2005)): 0.068
Henry solubility constant Hcp (reference: Kim et al. (2000)): 0.062

SMILES: CCCCCCO[N+](=O)[O-] [1-hexyl nitrate]
Henry solubility constant Hcp (reference: Hauff et al. (1998)): 0.0076

SMILES: Brc1ccc(Oc2ccc(Br)cc2Br)c(Br)c1 [2,2',4,4'-tetrabromodiphenyl ether]
Henry solubility constant Hcp [11]: 0.87
Henry solubility constant Hcp [7]: 0.17
Henry solubility constant Hcp (reference: Long et al. (2017)): 0.91

SMILES: O=NCl [nitrosyl chloride]
Henry solubility constant Hcp (reference: Scheer et al. (1997)): > 0.00049

SMILES: CC(C)(N)CO [2-amino-2-methyl-1-propanol]
Henry solubility constant Hcp (reference: Nguyen (2013)): 700

SMILES: ClNCl [dichloramine]
Henry solubility constant Hcp (reference: Holzwarth et al. (1984)): 0.28

SMILES: OCC(F)(F)C(F)F [2,2,3,3-tetrafluoro-1-propanol]
Henry solubility constant Hcp (reference: Chen et al. (2003)): 1.4
Henry solubility constant Hcp [14]: 1.6

SMILES: CNC(C)=O [N-methylacetamide]
Henry solubility constant Hcp [2]: 3200

SMILES: O=C(O)C(F)(F)C(F)(F)F [perfluoropropanoic acid]
Henry solubility constant Hcp (reference: Kwan (2001)): 8.8

SMILES: CCc1cnccn1 [2-ethylpyrazine]
Henry solubility constant Hcp (reference: Buttery et al. (1971)): 4

SMILES: FCCl [chlorofluoromethane]
Henry solubility constant Hcp (reference: Boggs and Buck (1958)): 0.0015

Reference: Sander's compilation of Henry's law constants
